From the supplement of paper PMC13207355

Tests used:
Details in all cases: exposure time: 72 h
[1] = tested on: E28 (patient-derived glioblastoma stem cells of classical subtype); experiment: surviving fraction (nuclei count normalised to DMSO); higher = more cells surviving (less toxic)
[2] = tested on: E31 (patient-derived glioblastoma stem cells of proneural subtype); experiment: as above
[3] = tested on: E13 (patient-derived glioblastoma stem cells of classical subtype); experiment: as above
[4] = tested on: E21 (patient-derived glioblastoma stem cells of mesenchymal subtype); experiment: as above
[5] = tested on: FT3469 (normal neural stem cell line); experiment: as above
[6] = tested on: E57 (patient-derived glioblastoma stem cells of mesenchymal subtype); experiment: as above
[7] = tested on: E34 (patient-derived glioblastoma stem cells of proneural subtype); experiment: as above
[8] = tested on: E28; experiment: phenotypic distance (Euclidean, principal components) from DMSO controls (arbitrary units); higher = stronger morphological change
[9] = tested on: E31; experiment: as above
[10] = tested on: E13; experiment: as above
[11] = tested on: E21; experiment: as above
[12] = tested on: FT3469; experiment: as above
[13] = tested on: E57; experiment: as above
[14] = tested on: E34; experiment: as above
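Throughout, for phenotypic distance (Euclidean, principal components) from DMSO controls: cell Painting imaging in 384-well plates, CellProfiler features reduced to at least 20 principal components, Euclidean distance versus same-plate DMSO vehicle wells (0.1% v/v), median over six images per well.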
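Throughout, for surviving fraction (nuclei count normalised to DMSO): nuclei counted by high-content imaging of Hoechst-stained cells in laminin-coated 384-well plates, relative to 0.1% DMSO vehicle wells, with staurosporine as cell-death control.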

COc1ccc(/C=C\c2cc(OC)c(OC)c(OC)c2)cc1OP(=O)(O)O [Fosbretabulin Disodium]
Details	phenotypic distance	surviving fraction
[1], 4.1 nM	–	1.09
[1], 12.3 nM	–	1
[1], 37 nM	–	0.905
[1], 111.1 nM	–	0.938
[1], 333.3 nM	–	0.894
[1], 1000 nM	–	0.41
[1], 3000 nM	–	0.293
[2], 4.1 nM	–	0.927
[2], 12.3 nM	–	1.01
[2], 37 nM	–	0.765
[2], 111.1 nM	–	0.917
[2], 333.3 nM	–	0.54
[2], 1000 nM	–	0.123
[2], 3000 nM	–	0.0441
[3], 4.1 nM	–	0.8
[3], 12.3 nM	–	0.905
[3], 37 nM	–	0.361
[3], 111.1 nM	–	0.241
[3], 333.3 nM	–	0.171
[3], 1000 nM	–	0.175
[3], 3000 nM	–	0.0977
[4], 4.1 nM	–	0.889
[4], 12.3 nM	–	0.951
[4], 37 nM	–	0.847
[4], 111.1 nM	–	0.415
[4], 333.3 nM	–	0.176
[4], 1000 nM	–	0.101
[4], 3000 nM	–	0.0981
[5], 4.1 nM	–	0.907
[5], 12.3 nM	–	1.03
[5], 37 nM	–	1.03
[5], 111.1 nM	–	0.976
[5], 333.3 nM	–	0.745
[5], 1000 nM	–	0.503
[5], 3000 nM	–	0.346
[6], 4.1 nM	–	0.953
[6], 12.3 nM	–	0.934
[6], 37 nM	–	0.943
[6], 111.1 nM	–	0.986
[6], 333.3 nM	–	0.604
[6], 1000 nM	–	0.077
[6], 3000 nM	–	0.0927
[7], 4.1 nM	–	0.966
[7], 12.3 nM	–	0.962
[7], 37 nM	–	1.06
[7], 111.1 nM	–	0.942
[7], 333.3 nM	–	0.86
[7], 1000 nM	–	0.521
[7], 3000 nM	–	0.348
[8], 4.1 nM	0.427	–
[8], 12.3 nM	0.345	–
[8], 37 nM	0.559	–
[8], 111.1 nM	0.674	–
[8], 333.3 nM	1.52	–
[8], 1000 nM	3.18	–
[8], 3000 nM	3.86	–
[9], 4.1 nM	0.483	–
[9], 12.3 nM	0.846	–
[9], 37 nM	0.502	–
[9], 111.1 nM	0.681	–
[9], 333.3 nM	1.6	–
[9], 1000 nM	4.42	–
[9], 3000 nM	7.65	–
[10], 4.1 nM	1.22	–
[10], 12.3 nM	2.08	–
[10], 37 nM	5.08	–
[10], 111.1 nM	4.95	–
[10], 333.3 nM	5.64	–
[10], 1000 nM	8.31	–
[10], 3000 nM	7.96	–
[11], 4.1 nM	0.897	–
[11], 12.3 nM	0.887	–
[11], 37 nM	1.98	–
[11], 111.1 nM	5.67	–
[11], 333.3 nM	6.69	–
[11], 1000 nM	8.1	–
[11], 3000 nM	6.31	–
[12], 4.1 nM	0.525	–
[12], 12.3 nM	0.86	–
[12], 37 nM	0.542	–
[12], 111.1 nM	0.517	–
[12], 333.3 nM	1.3	–
[12], 1000 nM	2.97	–
[12], 3000 nM	3.41	–
[13], 4.1 nM	0.784	–
[13], 12.3 nM	0.887	–
[13], 37 nM	0.575	–
[13], 111.1 nM	1.01	–
[13], 333.3 nM	2.68	–
[13], 1000 nM	5.08	–
[13], 3000 nM	5.09	–
[14], 4.1 nM	0.709	–
[14], 12.3 nM	0.552	–
[14], 37 nM	0.5	–
[14], 111.1 nM	0.935	–
[14], 333.3 nM	1.29	–
[14], 1000 nM	3.14	–
[14], 3000 nM	7.56	–
